Reference: PubChem BioAssay AID1963975 (Molecular Pharmacology Branch, DTP, NCI, 2024)

Test system: 624824-186-R-J2-PDC multicell spheroids, viability
Experiment: Anticancer human tumor 624824-186-R-J2-PDC patient-derived colon adenocarcinoma cell line growth inhibition [PI3K]
Details: for IC50: curve of first compound; for viability, T/C: stronger effect = lower value
Method in brief: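 Stroma-containing spheroids: tumor line, pooled-donor HUVEC, hMSC. Treatments: targeted agents with PI3K inhibitors. Dosing: clinically relevant, half-log spacing, 10 microM ceiling without known Cmax. Read-out: cell viability.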

[1] = second compound 0.0316 µM, first compound 0.000316 µM
[2] = second compound 0.0316 µM, first compound 0.001 µM
[3] = second compound 0.0316 µM, first compound 0.00316 µM
[4] = second compound 0.0316 µM, first compound 0.01 µM
[5] = second compound 0.0316 µM, first compound 0.0316 µM
[6] = second compound 0.0316 µM, first compound 0.1 µM
[7] = second compound 0.1 µM, first compound 0.000316 µM
[8] = second compound 0.1 µM, first compound 0.001 µM
[9] = second compound 0.1 µM, first compound 0.00316 µM
[10] = second compound 0.1 µM, first compound 0.01 µM
[11] = second compound 0.1 µM, first compound 0.0316 µM
[12] = second compound 0.1 µM, first compound 0.1 µM
[13] = second compound 0.316 µM, first compound 0.000316 µM
[14] = second compound 0.316 µM, first compound 0.001 µM
[15] = second compound 0.316 µM, first compound 0.00316 µM
[16] = second compound 0.316 µM, first compound 0.01 µM
[17] = second compound 0.316 µM, first compound 0.0316 µM
[18] = second compound 0.316 µM, first compound 0.1 µM
[19] = second compound 1 µM, first compound 0.000316 µM
[20] = second compound 1 µM, first compound 0.001 µM
[21] = second compound 1 µM, first compound 0.00316 µM
[22] = second compound 1 µM, first compound 0.01 µM
[23] = second compound 1 µM, first compound 0.0316 µM
[24] = second compound 1 µM, first compound 0.1 µM
[25] = second compound 3.16 µM, first compound 0.0316 µM
[26] = second compound 3.16 µM, first compound 0.1 µM
[27] = second compound 10 µM, first compound 0.0316 µM
[28] = second compound 10 µM, first compound 0.1 µM
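Also: spheroids exposed to agents for 7 days before viability read.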
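For viability, T/C in this document: 100% = DMSO vehicle treated spheroids.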

CC(=O)c1c(C)c2cnc(Nc3ccc(N4CCNCC4)cn3)nc2n(C2CCCC2)c1=O + Cc1nc(NC(=O)N2CCCC2C(N)=O)sc1-c1ccnc(C(C)(C)C(F)(F)F)c1
IC50 (second compound 0.0316 µM): > 100 nM | IC50 (second compound 0.1 µM): > 100 nM | IC50 (second compound 0.316 µM): > 100 nM | IC50 (second compound 1 µM): > 100 nM | IC50 (second compound 3.16 µM): > 100 nM | IC50 (second compound 10 µM): > 100 nM | viability, T/C [1]: 81.6% | viability, T/C [2]: 72.8% | viability, T/C [3]: 83.6% | viability, T/C [4]: 79.2% | viability, T/C [5]: 74.1% | viability, T/C [6]: 82.8% | viability, T/C [7]: 98.2% | viability, T/C [8]: 105% | viability, T/C [9]: 93.6% | viability, T/C [10]: 75.9% | viability, T/C [11]: 91.4% | viability, T/C [12]: 76.2% | viability, T/C [13]: 89% | viability, T/C [14]: 80.6% | viability, T/C [15]: 85% | viability, T/C [16]: 97.4% | viability, T/C [17]: 88.3% | viability, T/C [18]: 88.7% | viability, T/C [19]: 96.3% | viability, T/C [20]: 78.9% | viability, T/C [21]: 88.5% | viability, T/C [22]: 87.2% | viability, T/C [23]: 82.5% | viability, T/C [24]: 77.2% | viability, T/C (second compound 3.16 µM, first compound 0.000316 µM): 80.9% | viability, T/C (second compound 3.16 µM, first compound 0.001 µM): 83.6% | viability, T/C (second compound 3.16 µM, first compound 0.00316 µM): 91.1% | viability, T/C (second compound 3.16 µM, first compound 0.01 µM): 80.7% | viability, T/C [25]: 85.1% | viability, T/C [26]: 75.1% | viability, T/C (second compound 10 µM, first compound 0.000316 µM): 73.8% | viability, T/C (second compound 10 µM, first compound 0.001 µM): 67.5% | viability, T/C (second compound 10 µM, first compound 0.00316 µM): 72.1% | viability, T/C (second compound 10 µM, first compound 0.01 µM): 75.9% | viability, T/C [27]: 66% | viability, T/C [28]: 56.9%

CC(C)n1nc(-c2ccc3oc(N)nc3c2)c2c(N)ncnc21 + COc1c(OCCCN2CCOCC2)ccc2c3n(c(=NC(=O)c4cnc(N)nc4)nc12)CCN3
IC50 (second compound 0.00316 µM): > 100 nM | IC50 (second compound 0.01 µM): > 100 nM | IC50 (second compound 0.0316 µM): > 100 nM | IC50 (second compound 0.1 µM): > 100 nM | IC50 (second compound 0.316 µM): 75.3 nM | IC50 (second compound 1 µM): > 100 nM | viability, T/C (second compound 0.00316 µM, first compound 0.000316 µM): 82.8% | viability, T/C (second compound 0.00316 µM, first compound 0.001 µM): 95.9% | viability, T/C (second compound 0.00316 µM, first compound 0.00316 µM): 82.4% | viability, T/C (second compound 0.00316 µM, first compound 0.01 µM): 99.5% | viability, T/C (second compound 0.00316 µM, first compound 0.0316 µM): 84% | viability, T/C (second compound 0.00316 µM, first compound 0.1 µM): 70.1% | viability, T/C (second compound 0.01 µM, first compound 0.000316 µM): 104% | viability, T/C (second compound 0.01 µM, first compound 0.001 µM): 83.2% | viability, T/C (second compound 0.01 µM, first compound 0.00316 µM): 93.2% | viability, T/C (second compound 0.01 µM, first compound 0.01 µM): 86.7% | viability, T/C (second compound 0.01 µM, first compound 0.0316 µM): 80.7% | viability, T/C (second compound 0.01 µM, first compound 0.1 µM): 68.9% | viability, T/C [1]: 90.3% | viability, T/C [2]: 78.8% | viability, T/C [3]: 81.4% | viability, T/C [4]: 69.6% | viability, T/C [5]: 69.9% | viability, T/C [6]: 54.5% | viability, T/C [7]: 70.1% | viability, T/C [8]: 77.3% | viability, T/C [9]: 58.5% | viability, T/C [10]: 57.3% | viability, T/C [11]: 58.3% | viability, T/C [12]: 49.7% | viability, T/C [13]: 70.6% | viability, T/C [14]: 60.7% | viability, T/C [15]: 60.7% | viability, T/C [16]: 59.1% | viability, T/C [17]: 53.7% | viability, T/C [18]: 47.8% | viability, T/C [19]: 64.6% | viability, T/C [20]: 52.7% | viability, T/C [21]: 55% | viability, T/C [22]: 61.2% | viability, T/C [23]: 56.1% | viability, T/C [24]: 52%

Cn1ncc(Cl)c1-c1cc(C(=O)NC(CN)Cc2cccc(F)c2)sc1Cl (stereo unspecified) + CC(Nc1ncnc2nc[nH]c12)c1cc2cccc(Cl)c2c(=O)n1-c1ccccc1
IC50 (second compound 0.0316 µM): > 10000 nM | IC50 (second compound 0.1 µM): 9490 nM | IC50 (second compound 0.316 µM): > 10000 nM | IC50 (second compound 1 µM): 7070 nM | IC50 (second compound 3.16 µM): > 10000 nM | IC50 (second compound 10 µM): 9260 nM | viability, T/C [5]: 73.9% | viability, T/C [6]: 85.7% | viability, T/C (second compound 0.0316 µM, first compound 0.316 µM): 71.5% | viability, T/C (second compound 0.0316 µM, first compound 1 µM): 68.3% | viability, T/C (second compound 0.0316 µM, first compound 3.16 µM): 57.2% | viability, T/C (second compound 0.0316 µM, first compound 10 µM): 55.1% | viability, T/C [11]: 80.1% | viability, T/C [12]: 67.8% | viability, T/C (second compound 0.1 µM, first compound 0.316 µM): 80.7% | viability, T/C (second compound 0.1 µM, first compound 1 µM): 73% | viability, T/C (second compound 0.1 µM, first compound 3.16 µM): 67.6% | viability, T/C (second compound 0.1 µM, first compound 10 µM): 49.2% | viability, T/C [17]: 95.3% | viability, T/C [18]: 86.4% | viability, T/C (second compound 0.316 µM, first compound 0.316 µM): 67% | viability, T/C (second compound 0.316 µM, first compound 1 µM): 69% | viability, T/C (second compound 0.316 µM, first compound 3.16 µM): 63.6% | viability, T/C (second compound 0.316 µM, first compound 10 µM): 47.8% | viability, T/C [23]: 82.1% | viability, T/C [24]: 95.8% | viability, T/C (second compound 1 µM, first compound 0.316 µM): 71% | viability, T/C (second compound 1 µM, first compound 1 µM): 78.2% | viability, T/C (second compound 1 µM, first compound 3.16 µM): 62.3% | viability, T/C (second compound 1 µM, first compound 10 µM): 44.2% | viability, T/C [25]: 79.9% | viability, T/C [26]: 91.6% | viability, T/C (second compound 3.16 µM, first compound 0.316 µM): 78.8% | viability, T/C (second compound 3.16 µM, first compound 1 µM): 70.2% | viability, T/C (second compound 3.16 µM, first compound 3.16 µM): 69.8% | viability, T/C (second compound 3.16 µM, first compound 10 µM): 50.6% | viability, T/C [27]: 104% | viability, T/C [28]: 73.2% | viability, T/C (second compound 10 µM, first compound 0.316 µM): 89.7% | viability, T/C (second compound 10 µM, first compound 1 µM): 68.7% | viability, T/C (second compound 10 µM, first compound 3.16 µM): 64.1% | viability, T/C (second compound 10 µM, first compound 10 µM): 47.1%
